This test concerns the target T1, α2δ subunit derived from porcine brain tissue (Sus scrofa, UniProt A0A287BIN3).
T1 construct: the α2δ subunit derived from porcine brain tissue; from tissue; host or cells: porcine brain tissue
As to the kind of experiment: radioligand binding assay using [3H]gabapentin. The following applies: [3H]gabapentin binding. From the text:
The biological activity of the alpha-2-delta ligands of the invention may be measured in a radioligand binding assay using [^3H]gabapentin and the α2δ subunit derived from porcine brain tissue (Gee N. S., Brown J. P., Dissanayake V. U. K., Offord J., Thurlow R., Woodruff G. N., J. Biol. Chem., 1996;271:5879-[…]). Results may be expressed in terms of μM or nM α2δ binding affinity.

Structures can show the parent of a compound that is named as a salt.

T1 sequence (A0A287BIN3 25-1109): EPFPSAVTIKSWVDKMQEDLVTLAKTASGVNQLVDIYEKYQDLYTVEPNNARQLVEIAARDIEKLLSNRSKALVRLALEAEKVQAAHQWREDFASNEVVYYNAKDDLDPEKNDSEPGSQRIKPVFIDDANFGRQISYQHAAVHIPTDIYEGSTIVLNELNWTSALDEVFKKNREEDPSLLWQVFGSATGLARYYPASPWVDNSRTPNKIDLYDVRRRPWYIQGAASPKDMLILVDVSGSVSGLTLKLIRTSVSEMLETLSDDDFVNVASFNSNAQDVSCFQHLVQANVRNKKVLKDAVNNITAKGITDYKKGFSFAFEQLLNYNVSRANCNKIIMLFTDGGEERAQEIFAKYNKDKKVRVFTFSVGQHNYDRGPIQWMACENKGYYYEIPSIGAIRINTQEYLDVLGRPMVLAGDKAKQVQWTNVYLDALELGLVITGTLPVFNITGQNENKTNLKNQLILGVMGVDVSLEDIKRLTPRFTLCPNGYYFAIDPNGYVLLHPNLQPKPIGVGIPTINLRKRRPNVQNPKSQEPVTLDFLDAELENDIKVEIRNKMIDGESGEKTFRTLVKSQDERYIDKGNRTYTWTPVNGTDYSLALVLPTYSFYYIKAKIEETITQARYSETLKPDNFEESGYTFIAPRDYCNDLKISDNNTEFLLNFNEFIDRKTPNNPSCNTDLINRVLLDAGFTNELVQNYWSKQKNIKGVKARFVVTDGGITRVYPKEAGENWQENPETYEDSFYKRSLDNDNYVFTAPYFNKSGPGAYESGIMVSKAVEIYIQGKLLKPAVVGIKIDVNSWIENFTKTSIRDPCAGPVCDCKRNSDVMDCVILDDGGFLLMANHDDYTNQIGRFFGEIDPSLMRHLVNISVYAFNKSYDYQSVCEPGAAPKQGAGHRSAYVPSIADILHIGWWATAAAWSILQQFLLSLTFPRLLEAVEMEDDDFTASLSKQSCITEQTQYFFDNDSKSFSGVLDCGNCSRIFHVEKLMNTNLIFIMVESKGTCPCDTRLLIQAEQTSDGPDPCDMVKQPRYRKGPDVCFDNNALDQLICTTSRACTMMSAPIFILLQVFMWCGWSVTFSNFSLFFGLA

Usually IC50 stands for the concentration that gives 50% inhibition. Low readings indicate greater potency, high ones weaker potency. The molecule `O=C(O)[C@@H]1C[C@H](Cc2cc(F)ccc2F)CN1` [Example 12, (2S,4S)-4-(2,5-Difluoro-benzyl)-pyrrolidine-2-carboxylic acid mono hydrochloride salt] gave an IC50 of 7 nM. In turn, `O=C(O)[C@@H]1C[C@H](Cc2cccc(F)c2)CN1` [Example 10, (2S,4S)-4-(3-Fluoro-benzyl)-pyrrolidine-2-carboxylic acid mono hydrochloride salt] displayed an IC50 of 11 nM. Regarding `O=C(O)[C@@H]1C[C@H](OCc2ccc(Cl)cc2)CN1` [Example 2, (2S,4S)-4-[(4-chlorobenzyl)oxyl]-pyrrolidine-2-carboxylic acid], the IC50 is 119 nM.

As to `O=C(O)[C@@H]1C[C@H](Cc2cccc(F)c2F)CN1` [Example 11, (2S,4S)-4-(2.3-Difluoro-benzyl)-pyrrolidine-2-carboxylic acid mono-hydrochloride salt], the 50% inhibitory concentration (IC50) came out at 15 nM. For the molecule `O=C(O)[C@@H]1C[C@H](Oc2cccc(Cl)c2)CN1` [Example 8, (2S,4S)-4-(3-Chloro-phenoxy)-pyrrolidine-2-carboxylic acid], the IC50 was 5 nM. To `O=C(O)[C@@H]1C[C@H](Sc2ccccc2)CN1` [Example 4, (2S,4S)-4-phenylthio-pyrrolidine-2-carboxylic acid] belongs 72 nM. With `O=C(O)[C@@H]1C[C@H](Oc2ccc3ccncc3c2)CN1` [Example 7], the IC50 was 210 nM.

As for `COc1cccc(C[C@@H]2CN[C@H](C(=O)O)C2)c1` [Example 14, (2S,4S)-4-(3-Methoxy-benzyl)-pyrrolidine-2-carboxylic acid mono hydrochloride salt], the IC50 came to 9 nM.

The values are drawn from patent US7659305B2, “Therapeutic proline derivatives” (Pfizer Inc., priority 2002, dated 2010).
